Measured values from PMC9700728 (Nature Communications, 2022).
Values belong to the molecule of their own block, whether it stands above or below them.

Experiments:
BC2L-C-CTD = target: T1, BC2L-C-CTD (Burkholderia cenocepacia, UniProt B4EH86); assay: isothermal titration calorimetry; assay type: binding; conditions: 20 mM HEPES-NaOH pH 8.0, 200 mM NaCl, 25 °C
T1 construct: gene BCAM0185; C-terminal domain of BC2L-C, N-terminal 6xHis-tag (modified pET28), expressed in E. coli BL21(DE3)
Text: isothermal titration calorimetry on BC2L-C-CTD | BC2L-C-CTD bound only to mannose

[1] = target: T2, rThC (recombinant thrombocorticin, ThC) (unclassified Corticium (in: sponges), UniProt C0HM62); assay: inhibition of rThC-induced Ba/F3-HuMpl cell proliferation; assay type: cell-based; conditions: rThC 1 μg/mL, RPMI-1640 with 10% FBS, 37 °C, 4 days; competes with MPL glycan
T2 construct: N-terminal 6xHis-tag (modified pET28), expressed in E. coli BL21(DE3); 131 residues, 14 kDa; homodimer, sugar site at protomer interface
T2 sequence (C0HM62 1-131): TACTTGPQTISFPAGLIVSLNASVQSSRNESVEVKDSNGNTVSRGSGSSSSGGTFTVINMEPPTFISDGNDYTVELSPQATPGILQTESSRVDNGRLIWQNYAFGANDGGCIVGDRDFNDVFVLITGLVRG

[2] = target: T2, rThC (recombinant thrombocorticin, ThC); assay: isothermal titration calorimetry; assay type: binding; conditions: 5 mM CaCl2, 20 mM HEPES-NaOH pH 8.0, 200 mM NaCl, 25 °C; Ca2+-mediated site at dimer interface
[3] = target: human thrombopoietin receptor MPL on Ba/F3-HuMpl cells (human) (UniProt P40238)
[4] = target: T3, human thrombopoietin receptor MPL on Ba/F3-HuMpl cells (human, UniProt P40238 26-635); assay: cell-based or functional assay
T3 sequence (looked up): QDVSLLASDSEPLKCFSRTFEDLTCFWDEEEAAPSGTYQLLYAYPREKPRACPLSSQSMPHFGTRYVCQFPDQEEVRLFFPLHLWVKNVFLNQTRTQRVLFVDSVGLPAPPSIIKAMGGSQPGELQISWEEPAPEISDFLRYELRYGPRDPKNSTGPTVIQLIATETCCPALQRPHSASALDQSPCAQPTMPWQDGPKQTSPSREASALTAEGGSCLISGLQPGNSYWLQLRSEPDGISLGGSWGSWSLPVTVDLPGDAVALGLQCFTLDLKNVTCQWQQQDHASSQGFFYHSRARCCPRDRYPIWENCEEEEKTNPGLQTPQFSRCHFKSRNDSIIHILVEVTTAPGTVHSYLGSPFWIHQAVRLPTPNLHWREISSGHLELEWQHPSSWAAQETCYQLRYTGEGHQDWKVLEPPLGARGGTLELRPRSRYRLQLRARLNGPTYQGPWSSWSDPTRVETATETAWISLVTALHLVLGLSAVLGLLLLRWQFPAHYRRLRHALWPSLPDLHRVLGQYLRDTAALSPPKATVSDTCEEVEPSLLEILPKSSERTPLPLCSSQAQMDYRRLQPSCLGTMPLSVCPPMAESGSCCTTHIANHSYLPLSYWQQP

Molecule: OC[C@H]1OC(O)[C@@H](O)[C@@H](O)[C@@H]1O (stereo partly drawn) [D-mannose]
Kd (BC2L-C-CTD): 17.7 ± 0.32 µM | IC50 [1]: 6460 µM | KD [2]: 66.2 × 10 µM

IC50 [1]: 22.8 µM | Kd [2]: 4.72 µM
Molecule: C[C@@H]1OC(O)[C@@H](O)[C@H](O)[C@@H]1O (stereo partly drawn) [L-fucose]

Molecule: PA-IIL (from UniProt Q9HYN5 1-115) (natural protein)
proliferation of Ba/F3-HuMpl cells, EC50 [3]: 18.1 µg/mL

proliferation of Ba/F3-HuMpl cells, EC50 [4]: 0.26 µg/mL
B1: N-terminal His-tagged recombinant thrombocorticin (wild type) (natural protein, UniProt C0HM62 1-131, looked up)
chain: T2 sequence (C0HM62 1-131)
